The source of these data is ChEMBL document CHEMBL4507302, “Data for DCP probe TP-020” (2021).

In assay [1] the test system is Phosphatidylinositol 4,5-bisphosphate 3-kinase catalytic subunit alpha isoform (Homo sapiens), P42336 [C420R]. Conditions: Compound concentration 1000.0 nM.
The target in assay [2] is Casein kinase I isoform alpha-like (Homo sapiens) (UniProt Q8N752). Particulars: Compound concentration 1000.0 nM.
Assay [3] deals with Rho-associated protein kinase 1 (Homo sapiens) (UniProt Q13464). Particulars: Compound concentration 1000.0 nM.
Assay [4] addresses Muscarinic acetylcholine receptor M1 (Homo sapiens) (UniProt P11229). Particulars: Compound concentration 10.0 uM.
For assay [5], the target named is Beta-3 adrenergic receptor (Homo sapiens) (UniProt P13945). Conditions: Compound concentration 10.0 uM.
Assay [6] deals with Muscarinic acetylcholine receptor M2 (Homo sapiens) (UniProt P08172). Conditions: Compound concentration 10.0 uM.
Assay [7] has as its target Calcium/calmodulin-dependent protein kinase type IV (Homo sapiens) (UniProt Q16566). Conditions: Compound concentration 1000.0 nM.
For assay [8], the target named is Cyclin-dependent kinase 4 (Homo sapiens) (UniProt P11802). Conditions: Compound concentration 1000.0 nM.
Cyclin-dependent kinase 4 (Homo sapiens), sequence (P11802 whole entry): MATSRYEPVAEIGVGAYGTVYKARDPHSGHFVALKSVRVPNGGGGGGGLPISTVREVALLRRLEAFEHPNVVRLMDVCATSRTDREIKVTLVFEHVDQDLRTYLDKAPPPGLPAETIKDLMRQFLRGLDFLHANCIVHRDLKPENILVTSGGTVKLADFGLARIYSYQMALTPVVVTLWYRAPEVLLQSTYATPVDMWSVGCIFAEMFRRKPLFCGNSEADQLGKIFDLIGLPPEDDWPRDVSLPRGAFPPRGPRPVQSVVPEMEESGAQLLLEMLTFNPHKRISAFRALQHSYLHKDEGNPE
For assay [9], the target named is Beta-1 adrenergic receptor (Homo sapiens) (UniProt P08588). Particulars: Compound concentration 10.0 uM.
For assay [10], the target named is Sodium-dependent dopamine transporter (Homo sapiens) (UniProt Q01959). Conditions: Compound concentration 10.0 uM.
Sodium-dependent dopamine transporter (Homo sapiens), sequence (Q01959 whole entry): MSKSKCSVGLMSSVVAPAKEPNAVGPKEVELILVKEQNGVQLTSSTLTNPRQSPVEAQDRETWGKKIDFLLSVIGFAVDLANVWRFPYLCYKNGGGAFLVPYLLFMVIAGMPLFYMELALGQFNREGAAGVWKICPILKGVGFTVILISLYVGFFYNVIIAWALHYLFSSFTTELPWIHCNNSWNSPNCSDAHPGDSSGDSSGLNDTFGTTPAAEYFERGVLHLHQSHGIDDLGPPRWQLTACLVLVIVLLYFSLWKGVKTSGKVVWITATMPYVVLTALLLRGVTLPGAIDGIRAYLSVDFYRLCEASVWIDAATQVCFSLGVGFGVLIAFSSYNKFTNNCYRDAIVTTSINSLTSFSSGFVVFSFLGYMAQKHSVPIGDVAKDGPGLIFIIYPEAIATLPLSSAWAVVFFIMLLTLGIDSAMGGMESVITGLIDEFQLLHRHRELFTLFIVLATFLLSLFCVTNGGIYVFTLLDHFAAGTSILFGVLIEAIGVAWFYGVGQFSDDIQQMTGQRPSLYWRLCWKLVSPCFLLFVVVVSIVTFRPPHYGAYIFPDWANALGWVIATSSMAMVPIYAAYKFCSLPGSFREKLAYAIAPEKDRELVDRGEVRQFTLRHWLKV
Assay [11] relates to Receptor-type tyrosine-protein kinase FLT3 (Homo sapiens), P36888 [UNDEFINED MUTATION]. Particulars: Compound concentration 1000.0 nM.
Receptor-type tyrosine-protein kinase FLT3 (Homo sapiens), P36888 [UNDEFINED MUTATION], sequence (P36888 whole entry, looked up, change not shown): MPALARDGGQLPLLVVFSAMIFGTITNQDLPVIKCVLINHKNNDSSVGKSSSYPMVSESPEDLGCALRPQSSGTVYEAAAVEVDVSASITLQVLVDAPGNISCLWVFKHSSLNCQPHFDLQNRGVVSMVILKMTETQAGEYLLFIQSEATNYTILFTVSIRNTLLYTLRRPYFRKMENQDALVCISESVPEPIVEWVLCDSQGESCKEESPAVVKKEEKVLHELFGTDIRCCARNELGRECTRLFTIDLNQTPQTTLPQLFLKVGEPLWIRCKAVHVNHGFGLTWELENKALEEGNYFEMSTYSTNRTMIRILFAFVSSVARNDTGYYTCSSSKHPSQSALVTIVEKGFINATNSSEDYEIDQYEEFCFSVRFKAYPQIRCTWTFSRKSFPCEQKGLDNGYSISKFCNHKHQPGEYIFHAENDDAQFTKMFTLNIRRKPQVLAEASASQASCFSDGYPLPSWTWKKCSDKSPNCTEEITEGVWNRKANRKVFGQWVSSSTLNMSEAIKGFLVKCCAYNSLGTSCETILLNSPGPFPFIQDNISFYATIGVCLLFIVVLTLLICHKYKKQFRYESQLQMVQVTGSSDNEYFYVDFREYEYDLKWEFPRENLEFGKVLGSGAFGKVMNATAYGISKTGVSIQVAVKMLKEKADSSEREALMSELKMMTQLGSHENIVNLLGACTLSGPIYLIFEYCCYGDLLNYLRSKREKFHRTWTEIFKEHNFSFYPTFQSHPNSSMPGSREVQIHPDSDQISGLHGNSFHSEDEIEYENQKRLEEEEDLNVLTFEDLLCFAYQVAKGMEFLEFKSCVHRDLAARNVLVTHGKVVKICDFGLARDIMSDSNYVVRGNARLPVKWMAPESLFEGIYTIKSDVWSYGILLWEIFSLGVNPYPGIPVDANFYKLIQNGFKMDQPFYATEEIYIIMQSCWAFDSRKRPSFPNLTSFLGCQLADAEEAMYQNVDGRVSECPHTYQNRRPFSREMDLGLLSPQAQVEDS
Assay [12] concerns the target 5-hydroxytryptamine receptor 1A (Homo sapiens) (UniProt P08908). Conditions: Compound concentration 10.0 uM.
Assay [13] concerns the target Alpha-1A adrenergic receptor (Homo sapiens) (UniProt P35348). Particulars: Compound concentration 10.0 uM.
Assay [14] deals with Sigma intracellular receptor 2 (Homo sapiens, UniProt Q5BJF2). The experiment in a line: GPCRScan assay: inhibition of Sigma 2. Details: radioligand conc. used [nm] 5.0, parental cells HEKT.
For assay [15], the target named is Sigma non-opioid intracellular receptor 1 (Homo sapiens) (UniProt Q99720). Particulars: Compound concentration 10.0 uM.
Assay [16] has as its target 5-hydroxytryptamine receptor 6 (Homo sapiens) (UniProt P50406). Conditions: Compound concentration 10.0 uM.
For assay [17], the target named is Diacylglycerol O-acyltransferase 1 (Homo sapiens, UniProt O75907). Nature of the assay: Thin Layer Chromatography (TLC) assay (human DGAT1).
Assay [18] deals with 5-hydroxytryptamine receptor 2C (Homo sapiens) (UniProt P28335). Conditions: Compound concentration 10.0 uM.
The target in assay [19] is Mogat2 (Mus musculus). Nature of the assay: RapidFire/MS assay (mouse MGAT2).
Assay [20] has as its target Diacylglycerol O-acyltransferase 2-like protein MOGAT2 (Homo sapiens) (UniProt Q3SYC2). The experiment in a line: RapidFire/MS assay (human MGAT2).
The target in assay [21] is 5-hydroxytryptamine receptor 1D (Homo sapiens, UniProt P28221). The experiment in a line: GPCRScan assay: inhibition of 5-HT1D. Details: radioligand conc. used [nm] 1.0 – 2.0, parental cells HEKT.
5-hydroxytryptamine receptor 1D, sequence (P28221 whole entry): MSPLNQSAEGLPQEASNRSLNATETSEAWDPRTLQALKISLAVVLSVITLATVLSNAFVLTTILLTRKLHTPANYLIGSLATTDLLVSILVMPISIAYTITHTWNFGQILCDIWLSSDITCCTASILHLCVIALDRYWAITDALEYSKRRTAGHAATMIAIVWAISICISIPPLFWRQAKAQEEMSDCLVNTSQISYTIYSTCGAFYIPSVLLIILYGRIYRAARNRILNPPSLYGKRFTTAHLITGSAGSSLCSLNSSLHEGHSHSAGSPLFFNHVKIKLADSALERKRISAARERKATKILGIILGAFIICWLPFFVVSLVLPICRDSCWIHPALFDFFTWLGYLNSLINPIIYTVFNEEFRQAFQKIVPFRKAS
Assay [22] addresses Muscarinic acetylcholine receptor M3 (Homo sapiens) (UniProt P20309). Particulars: Compound concentration 10.0 uM.
Assay [23] addresses Alpha-2A adrenergic receptor (Homo sapiens) (UniProt P08913). Particulars: Compound concentration 10.0 uM.
Assay [24] addresses Alpha-2C adrenergic receptor (Homo sapiens) (UniProt P18825). Conditions: Compound concentration 10.0 uM.
Assay [25] has as its target Diacylglycerol O-acyltransferase 2 (Homo sapiens, UniProt Q96PD7). The experiment in a line: Thin Layer Chromatography (TLC) assay (human DGAT2).

The source made the active and inactive calls. No cut-off for these calls is given here.

Phosphatidylinositol 4,5-bisphosphate 3-kinase catalytic subunit alpha isoform (Homo sapiens), P42336 [C420R], sequence (P42336 whole entry C420R, canonical isoform): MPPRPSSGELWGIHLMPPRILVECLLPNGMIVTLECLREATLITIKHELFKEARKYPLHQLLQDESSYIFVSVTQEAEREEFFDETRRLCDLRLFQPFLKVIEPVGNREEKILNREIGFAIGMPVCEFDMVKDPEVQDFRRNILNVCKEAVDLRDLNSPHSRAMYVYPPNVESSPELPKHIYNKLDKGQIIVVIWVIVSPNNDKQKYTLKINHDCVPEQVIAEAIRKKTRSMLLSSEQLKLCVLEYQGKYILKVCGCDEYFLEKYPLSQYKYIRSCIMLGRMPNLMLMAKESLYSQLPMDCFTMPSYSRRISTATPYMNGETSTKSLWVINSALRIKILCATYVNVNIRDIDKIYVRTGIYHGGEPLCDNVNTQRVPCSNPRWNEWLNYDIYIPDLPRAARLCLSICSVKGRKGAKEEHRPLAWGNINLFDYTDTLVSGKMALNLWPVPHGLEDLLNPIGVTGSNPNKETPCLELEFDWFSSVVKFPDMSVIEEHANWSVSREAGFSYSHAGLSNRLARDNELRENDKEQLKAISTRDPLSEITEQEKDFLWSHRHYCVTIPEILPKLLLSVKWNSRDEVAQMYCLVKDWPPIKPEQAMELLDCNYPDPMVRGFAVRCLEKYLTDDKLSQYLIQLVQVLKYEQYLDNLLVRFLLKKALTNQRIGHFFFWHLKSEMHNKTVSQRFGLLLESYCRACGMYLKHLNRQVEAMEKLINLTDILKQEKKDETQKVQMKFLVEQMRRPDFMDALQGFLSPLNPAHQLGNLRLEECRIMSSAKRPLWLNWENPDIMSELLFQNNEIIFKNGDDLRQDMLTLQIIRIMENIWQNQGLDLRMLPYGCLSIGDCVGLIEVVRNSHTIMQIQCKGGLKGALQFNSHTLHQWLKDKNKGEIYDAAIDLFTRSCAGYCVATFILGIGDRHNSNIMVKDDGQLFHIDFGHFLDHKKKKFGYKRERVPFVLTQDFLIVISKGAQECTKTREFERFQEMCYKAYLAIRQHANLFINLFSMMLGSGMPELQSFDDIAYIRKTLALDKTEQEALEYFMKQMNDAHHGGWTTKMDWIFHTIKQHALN
Casein kinase I isoform alpha-like (Homo sapiens), sequence (Q8N752 whole entry, canonical isoform): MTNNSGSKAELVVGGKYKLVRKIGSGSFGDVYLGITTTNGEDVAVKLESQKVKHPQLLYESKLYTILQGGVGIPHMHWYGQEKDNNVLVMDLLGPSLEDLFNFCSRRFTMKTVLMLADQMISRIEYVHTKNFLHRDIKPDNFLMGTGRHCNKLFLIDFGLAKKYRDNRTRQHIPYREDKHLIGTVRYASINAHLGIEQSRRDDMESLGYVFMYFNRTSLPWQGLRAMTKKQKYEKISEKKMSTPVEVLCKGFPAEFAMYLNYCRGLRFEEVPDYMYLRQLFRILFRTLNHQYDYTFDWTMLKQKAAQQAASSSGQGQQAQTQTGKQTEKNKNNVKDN
Calcium/calmodulin-dependent protein kinase type IV (Homo sapiens), sequence (Q16566 whole entry): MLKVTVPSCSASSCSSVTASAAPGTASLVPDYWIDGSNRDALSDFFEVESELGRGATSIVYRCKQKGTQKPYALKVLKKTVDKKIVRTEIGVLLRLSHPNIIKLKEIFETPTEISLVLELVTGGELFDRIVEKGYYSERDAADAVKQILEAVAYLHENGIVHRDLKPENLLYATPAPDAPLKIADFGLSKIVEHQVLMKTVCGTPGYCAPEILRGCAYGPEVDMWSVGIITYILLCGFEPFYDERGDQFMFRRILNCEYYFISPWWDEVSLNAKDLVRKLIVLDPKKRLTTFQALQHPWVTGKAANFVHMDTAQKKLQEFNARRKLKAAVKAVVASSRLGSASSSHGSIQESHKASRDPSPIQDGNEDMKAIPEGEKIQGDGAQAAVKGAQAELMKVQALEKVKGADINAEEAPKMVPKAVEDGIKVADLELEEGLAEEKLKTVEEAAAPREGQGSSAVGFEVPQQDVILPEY
Alpha-2C adrenergic receptor (Homo sapiens), sequence (P18825 whole entry): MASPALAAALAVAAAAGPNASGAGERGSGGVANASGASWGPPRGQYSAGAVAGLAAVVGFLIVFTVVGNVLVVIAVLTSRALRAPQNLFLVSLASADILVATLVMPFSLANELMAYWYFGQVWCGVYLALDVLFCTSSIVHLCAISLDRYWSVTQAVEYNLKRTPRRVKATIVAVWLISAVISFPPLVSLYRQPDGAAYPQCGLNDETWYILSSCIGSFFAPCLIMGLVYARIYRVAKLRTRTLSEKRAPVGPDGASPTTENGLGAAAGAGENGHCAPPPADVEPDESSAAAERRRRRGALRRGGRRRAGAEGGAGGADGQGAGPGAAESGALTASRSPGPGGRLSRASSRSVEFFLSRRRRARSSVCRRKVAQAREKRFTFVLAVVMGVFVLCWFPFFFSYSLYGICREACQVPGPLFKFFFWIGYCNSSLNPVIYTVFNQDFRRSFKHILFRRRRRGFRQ
Diacylglycerol O-acyltransferase 2-like protein MOGAT2 (Homo sapiens), sequence (Q3SYC2 whole entry, looked up): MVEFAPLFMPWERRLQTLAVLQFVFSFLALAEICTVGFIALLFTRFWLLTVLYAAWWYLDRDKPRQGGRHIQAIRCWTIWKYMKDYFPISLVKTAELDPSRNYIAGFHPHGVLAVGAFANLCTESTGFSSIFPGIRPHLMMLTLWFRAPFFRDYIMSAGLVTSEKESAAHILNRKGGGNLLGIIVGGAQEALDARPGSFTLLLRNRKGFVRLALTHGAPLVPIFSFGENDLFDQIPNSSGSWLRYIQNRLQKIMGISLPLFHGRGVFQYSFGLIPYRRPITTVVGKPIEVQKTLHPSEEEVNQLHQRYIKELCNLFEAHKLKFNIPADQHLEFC

`Nc1cnc(N2CCc3cc(S(=O)(=O)Nc4c(F)cc(Cl)cc4F)cc(N4CCCC4=O)c32)nc1`: the residual activity in assay [1] is 84%; in assay [2], 100%; in assay [3], 96%; in assay [7], 96%; in [8], 86%; in assay [11], 100%. The inhibition was -9.48% in assay [4]; -2.69% in assay [5]; 3.7% in [6]; 8.84% in assay [9]; 20.2% in [10]; 4.45% in assay [12].
Consider `Cn1nc(C(F)(F)F)cc1-c1cnc(N2CCc3cc(S(=O)(=O)Nc4c(F)cc(Cl)cc4F)cc(N4CCCC4=O)c32)nc1` [TP-020], for which the residual activity in [1] is 76%; in assay [2] it was 100%; in assay [3] it was 89%; in assay [7], 100%; in assay [8], 82%; in assay [11] it was 82%. The inhibition in assay [13] was 6.96%; in [15], 12.8%; in [16] it was 6.67%; in assay [18], 31%; in [10], 14.5%; in assay [22] it was 7.26%. Besides, the inhibition was -9.1% in [23] and 17.9% in [24]. Further, the Ki in [14] is 10 µM; in [21] (read-out: Ki), 4.66 µM; in assay [21] (read-out: pKi (converted)), 4.57 µM. For the same molecule, the IC50 in [17] was > 30 µM (not active); in assay [19], 0.0024 µM (active); in [20] it was 0.0078 µM (active); in [25], > 30 µM (not active).

Broadly, the residual activity is the signal under treatment as a percentage of the control signal. In general, inhibition refers to the change of the read-out against control, counted positive when it falls. The IC50 is the concentration that inhibits the measured activity by half.
